Experimental data as given in patent publication US9211313B2, “Methods and compound to inhibit Ca2+ permeable cation conductance” (priority 2011, dated 2015).
“Also recorded” adds a separate entry of the source.

What was measured:
Format in all cases: cell-based
[1] = system: deoxygenation-activated cation conductance in human SS red cells; assay: On-cell patch clamp of deoxygenation-activated cation conductance, symmetric Na methanesulfonate
Procedure: (§1) Blood cell preparation: Human SS and AA blood was obtained under IRB-approved protocols of Children's Hospital and Beth Israel Deaconess Medical Center. After buffy coat removal and 5 washes in standard human red cell wash solution containing (in mM) 150 choline Cl, 1 MgCl, and 10 Tris-MOPS, pH 7.4, red cells were resuspended in storage solution containing (in mM) 145 KCl, 15 NaCl, and 10 HEPES, pH 7.4, then kept at 4° C. until used. Human red cells allowed to settle on coverslips were mounted on an inverted microscope in a 200 μl open chamber (WPI, Sarasota, Fla.) and superfused 15 min at room temperature by bath solution containing (in mM) 150 Na methanesulfonate, 10 Na EDTA, and 10 Na HEPES, pH 7.4.
Mouse red cells allowed to settle on coverslips were superfused 15 min with bath solution containing (in mM) either 150 mM Na methanesulfonate, 10 Na EDTA, and 10 Na HEPES, pH 7.4; or 140 NaCl, 4 KCl, 1CaCl2, 1 MgCl2, 10 Na HEPES, pH 7.4. Deoxygenation was achieved by switching superfusate to the same solution gassed ≧30 min prior to the experiment with 100% N2, and by flushing of the perfusion chamber with N2 during the deoxygenation period. The resulting bath pO2 was 18 mm Hg as measured by oxygen electrode (WPI). In the experiments of FIG. 1, deoxygenated cells were subsequently re-oxygenated by exposure to the same superfusate equilibrated with room air.
(§2) Washed human or mouse red cells in solution containing (in mM) 140 NaCl, 5 KCl, 1 CaCl2, 1 MgCl2, 10 Na HEPES, pH 7.4 were exposed for 1 hr on a rotary platform in a 37° C. incubator to 25 ppm carbon monoxide (CO) in 5% CO2. CO-exposed cells were then subjected to patch clamp or to calcium imaging experiments within 60 min after return to room air, using the solutions indicated.
(§3) On-cell patch clamp: Borosilicate pipettes (Corning 7052) pulled with a Narishige two stage puller or a Sutter P97 puller and fire-polished to resistances of 10-20 MΩ were front-filled and then backfilled. Symmetric bath and pipette solutions for studies of seal resistance stability during reversibility tests of the deoxygenation-activated conductance in SAD mouse red cells were (in mM) 140 NaCl, 4 KCl, 1 CaCl2, 1 MgCl2, 10 Na HEPES, pH 7.4. These conditions yielded tight seals in 13% of patch attempts on SAD cells. For study of deoxygenation-induced monovalent cation permeation in the absence of bath Ca^2+ and Mg^2+ recorded in SAD and Berkeley mouse cells and in human cells, symmetric bath and pipette solutions contained (in mM) 150 Na methanesulfonate, 10 Na EDTA, and 10 Na HEPES, pH 7.4. These conditions yielded tight seals in 16% of patch attempts on SAD mouse red cells, 26% of attempts on Berkeley mouse cells, and 30% of attempts on human SS cells. For study of Ca^2+ permeation in human SS cells, bath and pipette solutions contained (in mM) 100 CaCl2, 10 Na HEPES, pH 7.4. These conditions yielded tights seals on 44% of attempts. For all conditions tested in human red cells, 70% of tight seals were sustained through the solution change accompanying deoxygenation to allow recording of current activity.
(§4) On-cell patch currents were recorded with the Axopatch 1-D amplifier (Axon Instruments/Molecular Devices, Sunnyvale, Calif.). Holding potential was −Vp=−50 mV (expressed as the negative of the pipette potential (e.g., equivalent to the intracellular potential with respect to the pipette). To determine current-voltage relationships (I-V curves) in Fetchex or Clampex (PCLAMP, Axon Instruments), the realtime control window in gap-free mode was used to record current traces of 10-30 sec duration at holding potentials ranging from −100 to +100 mV, in 25 mV increments. The bath reference electrode was a silver chloride wire with a 3 M KCl agar bridge. Data was filtered at 500 Hz, digitized at 2 kHz by Clampex, and analyzed offline by Fetchan and Pstat or by Clampfit subroutines of PCLAMP. Holding potentials in on-cell patch experiments were expressed as −Vp, the negative of the pipette potential.

human SS red cells = assay: Fluo-3 fluorescence measurement of [Ca2+]i during deoxygenation, human SS cells; conditions: CO preincubation, no continued CO exposure
Procedure: as §1, §2
(§5) Fluorescence measurements of cytosolic [Ca^2+] ([Ca^2+]i): After removal of plasma and buffy coat by aspiration, human or mouse red cells were washed three times at room temperature and suspended in modified Hank's solution containing (in mM), 137 NaCl, 5.4 KCl, 1 CaCl2, 1 MgCl2, 0.8 NaK phosphate, 5.6 glucose, and 10 Na HEPES, pH 7.4. Dilute cell suspensions were settled on polylysine-coated coverslips forming the bottom of an open perfusion chamber (2.5 cm diameter, 1 cm depth) and washed again 3 times.
Measurement of relative changes in [Ca^2+]i by Fluo-3 fluorescence emission was previously validated in intact human (Yang et al. 2000, Blood, 95(7):2421-2425; Andrews et al. 2002, Blood, 199(9):3392-3399) and mouse red cells (Akel et al. 2007, Amer. J. Physiol., 292(5):C1759-1767). […] Fluorescence emission (proportional to [Ca^2+]i) from a 535ds20 bandpass filter was collected from all attached single cells within the arbitrarily selected visual field. […]
(§6) Fluo-3 fluorescence from attached cells on each coverslip was recorded 60 sec in room air and then for 10 min after onset of perfusion chamber flushing with humidified 100% N2. The normalized increase in Fluo-3 fluorescence in SS cells subjected to this deoxygenation procedure was indistinguishable from that observed during superfusion of cells in a closed perfusion chamber via syringe pump with bath previously bubbled for 60 min with 100% N2 (n=62 cells from 2 SS patients, not shown). The y-axis value of 0% change in Fluo-3 fluorescence intensity represented mean intensity recorded from all cells within the coverslip visual field during the 60 sec prior to deoxygenation.

[2] = system: SAD sickle mouse red cells; assay: Fluo-3 fluorescence measurement of [Ca2+]i during deoxygenation, SAD cells
Procedure: Blood was withdrawn by cardiac puncture or from the tail vein of C57B16/J wildtype mice, SAD sickle mice, or Berkeley sickle mice into heparinized syringes by IACUC-approved protocols of Beth Israel Deaconess Medical Center. Buffy coat-depleted cells were washed 5 times in standard mouse red cell wash solution containing (in mM) 172 choline Cl, 10 sucrose, 10 Na Tris-MOPS, pH 7.4, resuspended in storage solution, and kept at 4° C. until use.
as §5
Measurement of relative changes in [Ca^2+]i by Fluo-3 fluorescence emission was previously validated in intact human (Yang et al. 2000, Blood, 95(7):2421-2425; Andrews et al. 2002, Blood, 199(9):3392-3399) and mouse red cells (Akel et al. 2007, Amer. J. Physiol., 292(5):C1759-1767). Attached red cells were loaded in the dark with the fluorescent non-ratiometric Ca^2+ indicator Fluo-3-AM (10 μM, Molecular Probes, Eugene, Oreg.) at 37° C. for 1 hr, then washed and incubated 15 min further to allow de-esterification of intracellular dye. The open perfusion chamber containing dye-loaded cells was mounted on an Olympus IMT-2 inverted epifluorescence microscope equipped with CoolSNAP CCD camera (Photometrics, Tucson, Ariz.). Fluo-3 in cells imaged through a 60× objective was excited by mercury-xenon illumination passed through a 495ds20 filter. Fluorescence emission (proportional to [Ca^2+]i) from a 535ds20 bandpass filter was collected from all attached single cells within the arbitrarily selected visual field. Emission image acquisition was controlled by a Metafluor digital imaging system (Universal Imaging, West Chester, Pa.).
as §6

[3] = system: LPA-induced cation conductance in human SS red cells; assay: On-cell patch clamp of LPA-induced cation conductance
Text: as §3, §4
Deoxygenation-activated flickering cation conductance observed in human SS cells contrasted with the prolonged channel openings produced by 5 μM LPA (FIG. 10A). In SS cells, LPA increased NPo […], from 0.04±0.03 to 0.82±0.18 (n=8, p<0.001; Na methanesulfonate in bath and pipette, −Vp=−50 mV; FIG. 10B). LPA-induced cation conductance was 96% inhibited by 100 uM dipyridamole in the pipette, and 97% inhibited by 1 μM GsMTx-4 in the pipette (both n=4).

KCa3.1 = target: T1, KCa3.1 (Homo sapiens, UniProt O15554)
T1 construct: KCa3.1 activity stimulated in intact human AA cells by 1 μM A23187; endogenous in cells; host or cells: intact human AA red blood cells
T1 sequence (O15554 whole entry): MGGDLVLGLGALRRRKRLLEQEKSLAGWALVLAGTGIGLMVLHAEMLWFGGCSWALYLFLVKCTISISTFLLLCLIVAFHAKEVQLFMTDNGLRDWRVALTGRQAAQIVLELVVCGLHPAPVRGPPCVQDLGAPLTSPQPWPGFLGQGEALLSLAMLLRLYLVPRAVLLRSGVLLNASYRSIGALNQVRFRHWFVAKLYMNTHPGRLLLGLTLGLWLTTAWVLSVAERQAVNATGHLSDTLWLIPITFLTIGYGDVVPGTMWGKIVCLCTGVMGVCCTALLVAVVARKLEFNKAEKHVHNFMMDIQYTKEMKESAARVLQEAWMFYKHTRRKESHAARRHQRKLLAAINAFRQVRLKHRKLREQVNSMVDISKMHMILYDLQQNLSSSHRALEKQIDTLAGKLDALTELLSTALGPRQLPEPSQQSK

O=S(=O)(O)c1cc(N=C=S)ccc1C=Cc1ccc(N=C=S)cc1S(=O)(=O)O [DIDS, 4,4′-diisothiocyanatostilbene-2,2′-disulfonic acid]
effect on deoxygenation-induced activation of cation conductance ([1]; 100 μM in the pipette): prevented; also recorded: blocked
NPo after deoxygenation (hypoxic) ([1]; 100 μM in the pipette, n=4): 0.001±0.001
Normoxic NPo ([1]; 100 μM in the pipette, n=4): 0.002±0.002

[C-]#[O+] [CO, carbon monoxide]
effect on [Ca2+]i elevation by deoxygenation (human SS red cells): blocked; also recorded: inhibited
NPo upon deoxygenation ([1]; CO-pretreated cells, n=4): 0.0625±0.0375
Normoxic NPo ([1]; CO-pretreated cells, n=4): 0.0377±0.0375
effect on activation of conductance upon deoxygenation ([1]; prior CO exposure of SS cells): prevented

[Na+].[Na+].[Na+].[O]=[V]([O-])([O-])[O-] [vanadate, Na vanadate]
effect on deoxygenation-induced [Ca2+]i elevation ([2]; 50 μM in bath, acute deoxygenation): enhanced; also recorded: further elevated
time to plateau [Ca2+]i after deoxygenation ([2]; 50 μM, continued presence): < 2 min
[Ca2+]i-dependent Fluo-3 emission increase ([2]; 50 μM, 5 min normoxic preincubation of SAD cells): 12.8±1.8%
late [Ca2+]i relative to plateau ([2]; 50 μM, after ~4 min longer at plateau): twice the previous plateau value

OCCN(CCO)c1nc(N2CCCCC2)c2nc(N(CCO)CCO)nc(N3CCCCC3)c2n1 [dipyridamole]
effect on LPA-induced increase in NPo ([3]; 100 μM in the pipette): prevented
inhibition at 100 µM ([3]; Homo sapiens, 100 uM in the pipette, 5 μM LPA, n=4): 96%
effect on deoxygenation-induced activation of cation conductance ([1]; 100 μM in the pipette): prevented
NPo after deoxygenation (hypoxic) ([1]; 100 μM in the pipette, n=4): 0.004±0.002
Normoxic NPo ([1]; 100 μM in the pipette, n=4): 0.00

Clc1ccccc1C(c1ccccc1)(c1ccccc1)n1ccnc1 [clotrimazole, reference compound]
effect on A23187-stimulated cell shrinkage (KCa3.1): completely inhibited
